Counter-ions that a name gives are not always drawn. Like-named read-outs stand apart in the source and are kept apart here.
Columns and labels:
Type in all cases: physicochemical
[1] = Phase stability in aqueous system, slurry for 5 days (Comparative Example 2); details: slurry 5 days
Description: The phase stability of crystalline forms of ozanimod salts of Examples 1 to 124 and ozanimod hydrochloride crystalline form of Preparation Example 2 were tested in aqueous system.

[2] = Water solubility of crystalline ozanimod salt forms (Comparative Example 1)
Description: The water solubility of crystalline forms of ozanimod salts of Examples 1 to 124 and ozanimod hydrochloride of Preparation Example 2 were tested.

[3] = Isothermal adsorption curve (dynamic vapor sorption), weight change; details: in the range of 0% to 50%
Description: Dynamic vapor sorption data and isothermal sorption data are collected on TA Instruments Q5000 TGA. A sample of 1 to 10 mg is usually placed in a platinum pan; and the TA software records the change in weight of the sample during relative humidity from 0% to 80% to 0%. Depending on the specifics of the sample, different adsorption and desorption steps are also applied to the sample.

Row | Compound | Slurry for 5 days in ethanol/water (1:1) (solid state after slurry) [1] | Slurry for 5 days in water (solid state after slurry) [1] | 25° C. water solubility ([2]; 25° C.) | 37° C. water solubility ([2]; 37° C.) | solubility ([2]; 25° C., read-out: 25° C. water solubility) | solubility ([2]; 37° C., read-out: 37° C. water solubility) | weight change according to the isothermal adsorption curve [3]
1 | CC(C)Oc1ccc(-c2nc(-c3cccc4c3CCC4NCCO)no2)cc1C#N.CC(C)Oc1ccc(-c2nc(-c3cccc4c3CCC4NCCO)no2)cc1C#N.O=S(=O)(O)O (stereo not drawn) [Ozanimod hemisulfate Form 1] | Crystalline | Crystalline |  |  |  |  | 
2 | CC(C)Oc1ccc(-c2nc(-c3cccc4c3CC[C@@H]4NCCO)no2)cc1C#N.O=C(O)C(O)C(O)C(=O)O [Ozanimod L-tartrate Form 1] | Crystalline | Crystalline |  |  |  |  | 
3 | CC(C)Oc1ccc(-c2nc(-c3cccc4c3CC[C@@H]4NCCO)no2)cc1C#N.O=S(=O)(O)c1ccccc1 [Ozanimod besylate Form 1] | Crystalline | Crystalline |  |  |  |  | 0.05%
4 | CC(C)Oc1ccc(-c2nc(-c3cccc4c3CCC4NCCO)no2)cc1C#N.O=C(O)CC(O)(CC(=O)O)C(=O)O (stereo not drawn) [Ozanimod citrate Form 1] | Crystalline | Crystalline |  |  |  |  | 
5 | CC(C)Oc1ccc(-c2nc(-c3cccc4c3CC[C@@H]4NCCO)no2)cc1C#N.O=P(O)(O)O [Ozanimod dihydrogen phosphate Form 1] | Crystalline | Crystalline | 2540 µg/mL | 7710 µg/mL |  |  | 
6 | CC(C)Oc1ccc(-c2nc(-c3cccc4c3CC[C@@H]4NCCO)no2)cc1C#N.CC(C)Oc1ccc(-c2nc(-c3cccc4c3CC[C@@H]4NCCO)no2)cc1C#N.O=C(O)C[C@H](O)C(=O)O [Ozanimod hemi-L-malate Form 1] | Crystalline | Crystalline | 10550 µg/mL | 22620 µg/mL |  |  | 
7 | CC(C)Oc1ccc(-c2nc(-c3cccc4c3CCC4NCCO)no2)cc1C#N.CC(C)Oc1ccc(-c2nc(-c3cccc4c3CCC4NCCO)no2)cc1C#N.O=C(O)C=CC(=O)O (stereo not drawn) [Ozanimod hemi-fumarate Form 1] | Crystalline | Crystalline |  |  |  |  | 
8 | CC(C)Oc1ccc(-c2nc(-c3cccc4c3CC[C@@H]4NCCO)no2)cc1C#N.O=C(O)/C=C/C(=O)O [Ozanimod fumarate Form 1] | Crystalline | Crystalline | 2340 µg/mL | 4550 µg/mL |  |  | 

More lines, now with the values ahead:

Row | Slurry for 5 days in ethanol/water (1:1) (solid state after slurry) [1] | Slurry for 5 days in water (solid state after slurry) [1] | 25° C. water solubility ([2]; 25° C.) | 37° C. water solubility ([2]; 37° C.) | solubility ([2]; 25° C., read-out: 25° C. water solubility) | solubility ([2]; 37° C., read-out: 37° C. water solubility) | weight change according to the isothermal adsorption curve [3] | Compound
9 | Crystalline | Crystalline |  |  |  |  |  | CC(C)Oc1ccc(-c2nc(-c3cccc4c3CCC4NCCO)no2)cc1C#N.O=S(=O)(O)O (stereo not drawn) [Ozanimod hydrosulfate Form 1]
10 | Crystalline | Crystalline | 17600 µg/mL | 53820 µg/mL |  |  |  | CC(C)Oc1ccc(-c2nc(-c3cccc4c3CC[C@@H]4NCCO)no2)cc1C#N.CS(=O)(=O)O [Ozanimod mesylate Form 1]
11 | Crystalline | Crystalline | 1200 µg/mL | 5290 µg/mL |  |  |  | CC(C)Oc1ccc(-c2nc(-c3cccc4c3CC[C@@H]4NCCO)no2)cc1C#N.O=C(O)/C=C\C(=O)O [Ozanimod maleate Form 1]
12 | Weak crystallinity | Amorphous |  |  | 610 µg/mL | 2450 µg/mL | 0.14% | CC(C)Oc1ccc(-c2nc(-c3cccc4c3CC[C@@H]4NCCO)no2)cc1C#N [Ozanimod hydrochloride form, reference compound]
13 | Crystalline | Crystalline | 780 µg/mL | 3490 µg/mL |  |  |  | Br.CC(C)Oc1ccc(-c2nc(-c3cccc4c3CC[C@@H]4NCCO)no2)cc1C#N [Ozanimod hydrobromide Form 1]
